Test [1] deals with Melanocortin receptor 4 (Homo sapiens, UniProt P32245).
Test [2] concerns the target Vasopressin V2 receptor (Homo sapiens, UniProt P30518).
The target of test [3] is T1, Progesterone receptor (Homo sapiens, UniProt P06401).
T1 sequence (P06401 whole entry): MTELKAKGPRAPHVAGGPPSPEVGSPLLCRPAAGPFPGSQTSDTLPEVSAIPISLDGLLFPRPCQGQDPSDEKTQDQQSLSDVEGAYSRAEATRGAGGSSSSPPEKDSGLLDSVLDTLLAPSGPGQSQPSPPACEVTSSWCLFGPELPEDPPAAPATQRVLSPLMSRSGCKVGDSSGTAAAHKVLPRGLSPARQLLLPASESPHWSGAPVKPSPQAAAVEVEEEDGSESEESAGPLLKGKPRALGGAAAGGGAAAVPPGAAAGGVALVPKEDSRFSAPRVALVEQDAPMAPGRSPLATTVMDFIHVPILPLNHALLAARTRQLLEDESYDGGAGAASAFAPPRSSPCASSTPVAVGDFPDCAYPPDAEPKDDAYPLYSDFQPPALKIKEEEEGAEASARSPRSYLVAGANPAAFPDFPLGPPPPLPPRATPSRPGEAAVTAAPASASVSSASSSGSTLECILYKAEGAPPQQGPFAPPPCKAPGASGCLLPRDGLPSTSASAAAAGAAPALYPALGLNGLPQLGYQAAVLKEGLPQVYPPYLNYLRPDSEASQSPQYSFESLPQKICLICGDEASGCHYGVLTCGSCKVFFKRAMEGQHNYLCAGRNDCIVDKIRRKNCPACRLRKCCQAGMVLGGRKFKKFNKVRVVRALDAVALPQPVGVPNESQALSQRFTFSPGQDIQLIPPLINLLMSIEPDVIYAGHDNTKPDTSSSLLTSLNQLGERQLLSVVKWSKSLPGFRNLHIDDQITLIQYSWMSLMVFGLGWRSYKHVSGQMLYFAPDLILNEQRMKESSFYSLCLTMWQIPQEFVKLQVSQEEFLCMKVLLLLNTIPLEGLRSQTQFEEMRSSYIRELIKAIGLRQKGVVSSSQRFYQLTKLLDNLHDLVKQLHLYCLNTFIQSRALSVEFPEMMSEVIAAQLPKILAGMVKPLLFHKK
The class given is functional.

Test [4] has as its target Glutamate receptor ionotropic, NMDA 1 (Rattus norvegicus, UniProt P35439).
Test [5] deals with Vascular endothelial growth factor receptor 2 (Homo sapiens, UniProt P35968). The class given is functional.
Vascular endothelial growth factor receptor 2, sequence (P35968 whole entry): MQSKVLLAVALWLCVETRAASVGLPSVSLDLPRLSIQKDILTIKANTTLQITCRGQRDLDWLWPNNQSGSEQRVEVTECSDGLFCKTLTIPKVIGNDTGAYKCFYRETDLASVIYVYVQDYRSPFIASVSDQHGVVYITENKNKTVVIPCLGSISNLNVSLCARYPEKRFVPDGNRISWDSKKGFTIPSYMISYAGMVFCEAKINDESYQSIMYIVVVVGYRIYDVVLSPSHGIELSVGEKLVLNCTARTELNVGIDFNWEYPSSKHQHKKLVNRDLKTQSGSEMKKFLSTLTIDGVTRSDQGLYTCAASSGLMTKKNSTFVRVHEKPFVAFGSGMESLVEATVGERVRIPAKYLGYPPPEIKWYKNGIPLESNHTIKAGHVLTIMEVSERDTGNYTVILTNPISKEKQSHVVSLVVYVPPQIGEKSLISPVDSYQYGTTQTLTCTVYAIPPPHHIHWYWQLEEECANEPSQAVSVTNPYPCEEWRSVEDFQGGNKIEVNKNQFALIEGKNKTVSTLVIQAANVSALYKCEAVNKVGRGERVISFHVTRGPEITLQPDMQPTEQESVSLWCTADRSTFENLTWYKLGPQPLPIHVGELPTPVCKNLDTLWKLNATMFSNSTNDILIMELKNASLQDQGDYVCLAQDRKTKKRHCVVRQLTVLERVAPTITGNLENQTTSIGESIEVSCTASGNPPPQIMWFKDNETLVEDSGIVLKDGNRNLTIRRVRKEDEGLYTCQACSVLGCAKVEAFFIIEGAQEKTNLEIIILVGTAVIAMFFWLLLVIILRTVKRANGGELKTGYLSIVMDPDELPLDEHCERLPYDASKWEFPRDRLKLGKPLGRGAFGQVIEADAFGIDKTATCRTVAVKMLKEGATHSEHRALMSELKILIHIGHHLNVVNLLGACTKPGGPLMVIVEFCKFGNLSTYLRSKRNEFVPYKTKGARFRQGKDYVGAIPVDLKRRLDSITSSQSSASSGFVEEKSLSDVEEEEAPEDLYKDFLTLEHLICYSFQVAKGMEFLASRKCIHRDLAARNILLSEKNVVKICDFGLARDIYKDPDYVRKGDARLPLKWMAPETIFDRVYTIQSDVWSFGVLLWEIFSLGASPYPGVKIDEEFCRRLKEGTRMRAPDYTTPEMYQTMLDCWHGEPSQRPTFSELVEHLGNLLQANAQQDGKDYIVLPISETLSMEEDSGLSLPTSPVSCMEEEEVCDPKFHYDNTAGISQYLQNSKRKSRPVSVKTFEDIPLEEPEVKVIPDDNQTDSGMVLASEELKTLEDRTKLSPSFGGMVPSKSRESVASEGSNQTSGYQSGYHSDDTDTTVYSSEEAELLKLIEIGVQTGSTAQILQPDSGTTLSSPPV
Test [6] concerns the target Sodium-dependent noradrenaline transporter (Homo sapiens, UniProt P23975).
In test [7] the target is T1, Progesterone receptor.
Test [8] concerns the target Prothrombin (Homo sapiens, UniProt P00734). The class given is functional.
Test [9] concerns the target T2, Estrogen receptor (Homo sapiens, UniProt P03372).
T2 sequence (P03372 whole entry): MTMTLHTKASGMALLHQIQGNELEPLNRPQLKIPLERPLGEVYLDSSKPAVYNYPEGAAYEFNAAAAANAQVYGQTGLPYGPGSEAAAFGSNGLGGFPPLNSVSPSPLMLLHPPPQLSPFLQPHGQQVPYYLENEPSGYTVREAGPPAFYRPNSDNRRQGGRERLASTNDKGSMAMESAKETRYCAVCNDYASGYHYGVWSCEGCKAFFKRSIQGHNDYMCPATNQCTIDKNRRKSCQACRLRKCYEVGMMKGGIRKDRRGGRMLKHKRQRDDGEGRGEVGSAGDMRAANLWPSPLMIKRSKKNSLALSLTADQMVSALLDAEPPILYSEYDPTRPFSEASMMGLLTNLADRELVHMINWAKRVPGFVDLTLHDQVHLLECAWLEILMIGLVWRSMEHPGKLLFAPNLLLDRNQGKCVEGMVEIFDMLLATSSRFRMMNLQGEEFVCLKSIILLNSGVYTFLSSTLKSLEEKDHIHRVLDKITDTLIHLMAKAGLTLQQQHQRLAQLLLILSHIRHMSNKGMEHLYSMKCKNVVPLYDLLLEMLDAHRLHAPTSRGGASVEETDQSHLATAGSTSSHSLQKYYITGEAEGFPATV

Test [10] deals with 5-hydroxytryptamine receptor 2B (Homo sapiens, UniProt P41595). The class given is functional, cell-based.
5-hydroxytryptamine receptor 2B, sequence (P41595 whole entry): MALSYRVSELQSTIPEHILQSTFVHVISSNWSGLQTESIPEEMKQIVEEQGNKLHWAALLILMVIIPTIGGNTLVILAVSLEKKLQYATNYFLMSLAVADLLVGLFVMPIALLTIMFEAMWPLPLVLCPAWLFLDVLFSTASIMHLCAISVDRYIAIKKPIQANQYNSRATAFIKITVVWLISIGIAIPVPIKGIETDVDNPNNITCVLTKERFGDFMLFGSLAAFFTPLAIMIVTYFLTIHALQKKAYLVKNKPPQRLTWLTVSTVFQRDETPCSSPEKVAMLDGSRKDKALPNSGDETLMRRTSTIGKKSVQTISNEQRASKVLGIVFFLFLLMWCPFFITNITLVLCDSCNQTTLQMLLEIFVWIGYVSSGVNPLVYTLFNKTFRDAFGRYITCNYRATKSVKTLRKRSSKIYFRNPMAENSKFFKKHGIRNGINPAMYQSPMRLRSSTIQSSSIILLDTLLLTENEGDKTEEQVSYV
Test [11] addresses 3',5'-cyclic-AMP phosphodiesterase 4A (Homo sapiens, UniProt P27815). The class given is functional.
The target in test [12] is Prostaglandin G/H synthase 1 (Homo sapiens, UniProt P23219). Format: functional.
Prostaglandin G/H synthase 1, sequence (P23219 whole entry): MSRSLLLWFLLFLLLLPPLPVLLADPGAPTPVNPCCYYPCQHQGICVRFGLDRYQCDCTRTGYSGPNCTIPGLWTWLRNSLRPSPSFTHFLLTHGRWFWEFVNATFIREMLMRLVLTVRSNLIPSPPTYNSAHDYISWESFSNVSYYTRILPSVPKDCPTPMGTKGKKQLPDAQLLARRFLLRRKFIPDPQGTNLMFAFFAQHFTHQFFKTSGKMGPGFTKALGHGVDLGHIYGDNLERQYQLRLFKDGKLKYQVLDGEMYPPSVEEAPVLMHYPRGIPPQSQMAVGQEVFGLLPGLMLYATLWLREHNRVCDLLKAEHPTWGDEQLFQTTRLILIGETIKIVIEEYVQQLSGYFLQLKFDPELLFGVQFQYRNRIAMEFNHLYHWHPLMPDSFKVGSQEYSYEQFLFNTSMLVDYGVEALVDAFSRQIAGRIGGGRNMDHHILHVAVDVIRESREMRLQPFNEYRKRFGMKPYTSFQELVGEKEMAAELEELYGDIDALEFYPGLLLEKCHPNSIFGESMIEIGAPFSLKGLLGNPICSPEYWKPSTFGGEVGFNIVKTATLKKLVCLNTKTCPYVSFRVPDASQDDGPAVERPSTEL
For test [13], the target named is Cannabinoid receptor 1 (Homo sapiens, UniProt P21554). The class given is functional, cell-based.
Cannabinoid receptor 1, sequence (P21554 whole entry): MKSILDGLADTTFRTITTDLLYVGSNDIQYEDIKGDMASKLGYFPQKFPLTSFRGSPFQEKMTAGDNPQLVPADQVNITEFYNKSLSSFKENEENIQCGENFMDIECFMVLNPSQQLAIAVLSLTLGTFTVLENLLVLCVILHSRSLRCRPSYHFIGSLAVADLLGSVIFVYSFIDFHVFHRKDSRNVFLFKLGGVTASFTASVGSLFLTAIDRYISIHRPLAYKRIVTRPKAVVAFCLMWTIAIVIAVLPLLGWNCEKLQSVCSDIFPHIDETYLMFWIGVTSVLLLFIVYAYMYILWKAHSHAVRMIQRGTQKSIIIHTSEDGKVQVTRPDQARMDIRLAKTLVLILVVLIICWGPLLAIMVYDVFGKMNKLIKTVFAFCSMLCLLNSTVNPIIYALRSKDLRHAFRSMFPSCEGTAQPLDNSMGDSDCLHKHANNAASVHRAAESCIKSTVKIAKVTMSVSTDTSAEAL
Further: assay procedure not described here.

Sodium-dependent noradrenaline transporter, sequence (P23975 whole entry): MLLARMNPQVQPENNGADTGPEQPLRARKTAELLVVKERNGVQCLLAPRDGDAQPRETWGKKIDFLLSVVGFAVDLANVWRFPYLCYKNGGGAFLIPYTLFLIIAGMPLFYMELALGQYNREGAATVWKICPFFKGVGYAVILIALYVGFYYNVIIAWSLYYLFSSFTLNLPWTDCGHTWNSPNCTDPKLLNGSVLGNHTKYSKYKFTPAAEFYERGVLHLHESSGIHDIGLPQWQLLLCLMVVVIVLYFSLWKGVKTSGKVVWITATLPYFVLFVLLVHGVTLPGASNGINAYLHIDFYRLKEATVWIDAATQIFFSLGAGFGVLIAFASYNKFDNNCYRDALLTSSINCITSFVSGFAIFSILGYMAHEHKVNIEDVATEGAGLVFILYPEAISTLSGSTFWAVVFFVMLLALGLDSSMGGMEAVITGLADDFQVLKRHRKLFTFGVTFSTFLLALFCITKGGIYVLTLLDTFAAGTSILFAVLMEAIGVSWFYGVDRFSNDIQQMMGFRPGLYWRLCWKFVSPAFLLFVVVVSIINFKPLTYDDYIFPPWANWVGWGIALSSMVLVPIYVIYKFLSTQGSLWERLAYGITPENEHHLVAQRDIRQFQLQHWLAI
3',5'-cyclic-AMP phosphodiesterase 4A, sequence (P27815 whole entry): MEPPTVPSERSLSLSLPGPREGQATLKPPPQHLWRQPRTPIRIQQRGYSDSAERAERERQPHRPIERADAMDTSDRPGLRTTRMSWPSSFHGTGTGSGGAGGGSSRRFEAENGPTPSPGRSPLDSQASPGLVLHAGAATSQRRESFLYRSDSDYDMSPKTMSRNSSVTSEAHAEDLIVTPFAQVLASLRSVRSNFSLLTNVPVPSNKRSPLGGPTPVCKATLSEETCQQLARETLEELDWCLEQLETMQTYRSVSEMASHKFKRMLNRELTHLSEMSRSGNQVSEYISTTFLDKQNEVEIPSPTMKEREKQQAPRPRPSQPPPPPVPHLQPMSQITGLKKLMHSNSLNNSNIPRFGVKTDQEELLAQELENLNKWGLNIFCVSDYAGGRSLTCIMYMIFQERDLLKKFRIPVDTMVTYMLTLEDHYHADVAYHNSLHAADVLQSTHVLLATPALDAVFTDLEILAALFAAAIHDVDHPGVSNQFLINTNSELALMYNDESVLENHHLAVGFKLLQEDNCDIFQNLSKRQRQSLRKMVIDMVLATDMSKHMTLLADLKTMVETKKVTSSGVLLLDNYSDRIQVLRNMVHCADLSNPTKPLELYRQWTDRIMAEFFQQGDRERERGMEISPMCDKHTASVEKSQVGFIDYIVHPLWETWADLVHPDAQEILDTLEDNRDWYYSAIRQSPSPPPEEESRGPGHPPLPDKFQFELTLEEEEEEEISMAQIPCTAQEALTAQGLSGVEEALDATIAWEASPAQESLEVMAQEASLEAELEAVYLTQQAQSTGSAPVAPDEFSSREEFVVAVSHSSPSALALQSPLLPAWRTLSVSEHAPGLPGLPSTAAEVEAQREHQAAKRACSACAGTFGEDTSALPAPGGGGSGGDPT
Vasopressin V2 receptor, sequence (P30518 whole entry): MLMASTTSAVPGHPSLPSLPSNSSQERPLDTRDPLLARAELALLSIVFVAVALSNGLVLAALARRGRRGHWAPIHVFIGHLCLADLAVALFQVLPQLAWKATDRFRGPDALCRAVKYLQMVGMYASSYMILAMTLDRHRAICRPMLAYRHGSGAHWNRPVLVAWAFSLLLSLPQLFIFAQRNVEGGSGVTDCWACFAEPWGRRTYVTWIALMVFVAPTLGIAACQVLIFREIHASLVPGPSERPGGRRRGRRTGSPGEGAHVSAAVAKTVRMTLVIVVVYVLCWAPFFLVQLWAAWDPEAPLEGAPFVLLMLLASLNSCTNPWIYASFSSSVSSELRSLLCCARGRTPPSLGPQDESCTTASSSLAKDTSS

As for `CC(C)NCC(O)COc1ccc(CC(N)=O)cc1` (configuration not stated) [ATENOLOL], the AC50 in test [1], in test [2], in test [3] and in test [4] was above 30 µM each time.

With `NC(=O)C1(N2CCCCC2)CCN(CCCN2c3ccccc3CCc3ccccc32)CC1` [CARPIPRAMINE], the AC50 was above 30 µM in test [5]; 11.7 µM in test [6]; above 30 µM in test [7]; above 30 µM in test [8]; above 30 µM in [9]; above 30 µM in test [10]. In addition, the concentration at half-maximal activity (AC50) in test [11] and in test [12] was above 30 µM in each case.

With `CN1CCN(C(c2ccccc2)c2ccc(Cl)cc2)CC1` (configuration not stated) [CHLORCYCLIZINE], the concentration at half-maximal activity (AC50) in test [5] is above 30 µM; in test [6], 21.2 µM; in test [7], above 30 µM; in [8], above 30 µM; in test [9], above 30 µM; in test [10], above 30 µM. In addition, the AC50 in test [11] and in [12] was above 30 µM in each case.

With `O=P1(N(CCCl)CCCl)NCCCO1` (configuration not stated) [CYCLOPHOSPHAMIDE ANHYDROUS], the AC50 in test [5], in [6], in test [7], in test [8], in test [9] and in [10] was above 30 µM throughout. For the same compound, the AC50 in test [11] and in test [12] was above 30 µM throughout.

Take `CC(C)Nc1cccnc1N1CCN(C(=O)c2cc3cc(NS(C)(=O)=O)ccc3[nH]2)CC1` [DELAVIRDINE]: the concentration at half-maximal activity (AC50) in [5], in test [6], in test [7], in test [8], in test [9] and in test [10] was above 30 µM throughout. Further, the concentration at half-maximal activity (AC50) in test [11] and in test [12] was above 30 µM throughout.

In the case of `C[C@]12CC[C@@H]3c4ccc(OC(=O)N(CCCl)CCCl)cc4CC[C@H]3[C@@H]1CC[C@@H]2OP(=O)(O)O` [ESTRAMUSTINE PHOSPHATE], the half-maximal activity concentration (AC50) in test [5] was 19.5 µM; in test [6], above 30 µM; in [7], above 30 µM; in test [8] it was above 30 µM; in [9] it was 2.03 µM; in test [10] it was above 30 µM. The AC50 in [11] and in [12] was above 30 µM in each case.

Turning to `O=c1[nH]c2ccccc2n1CCN1CCN(c2cccc(C(F)(F)F)c2)CC1` [FLIBANSERIN], the half-maximal activity concentration (AC50) in [5] is above 30 µM; in test [6], above 30 µM; in test [7] it was above 30 µM; in test [8] it was above 10 µM; in test [9] it was above 30 µM; in [10], above 30 µM. The AC50 in test [11] and in [12] was above 30 µM each time.

Take `N=C(N)NCC1COc2ccccc2O1` (configuration not stated) [GUANOXAN]: the AC50 in [5] was above 30 µM; in test [6], 5.56 µM; in test [7] it was above 30 µM; in test [8], above 30 µM; in [9] it was above 30 µM; in test [10], above 30 µM. In addition, the AC50 in test [11] and in [12] was above 30 µM throughout.

Consider `N#Cc1ccnc(N2C(=O)CC[C@H]2C(=O)N(c2cncc(F)c2)[C@H](C(=O)NC2CC(F)(F)C2)c2ccccc2Cl)c1` [IVOSIDENIB], for which the AC50 in test [5], in test [6], in [7], in test [8], in test [9] and in [10] was above 30 µM throughout. The AC50 in [11] and in test [12] was above 30 µM in each case.

`CNC1(c2ccccc2Cl)CCCCC1=O` (configuration not stated) [KETAMINE]: the concentration at half-maximal activity (AC50) in test [5], in test [6], in [7], in test [8], in [9] and in [10] was above 30 µM throughout. Further, the AC50 in test [11] and in test [12] was above 30 µM in each case.

Regarding `O=C1[C@@H]2[C@H]3CC[C@H](C3)[C@@H]2C(=O)N1C[C@@H]1CCCC[C@H]1CN1CCN(c2nsc3ccccc23)CC1` [LURASIDONE], the AC50 was above 30 µM in test [5]; 24.1 µM in test [6]; above 30 µM in test [7]; above 30 µM in test [8]; above 30 µM in test [9]; above 30 µM in test [10]. The AC50 in test [3] was above 30 µM; in [11] it was 22.5 µM; in test [13], above 30 µM; in test [12], above 30 µM.

On to `CCCCCCO[C@@H](C)c1cccc(-c2csc(NC(=O)c3cc(Cl)c(/C=C(\C)C(=O)O)c(Cl)c3)n2)c1OC` [LUSUTROMBOPAG], for which the AC50 is above 30 µM in [5]; above 30 µM in [6]; 9.34 µM in test [7]; 19.3 µM in [8]; 2.91 µM in test [9]; above 30 µM in test [10]. In addition, the AC50 in [11] turned out to be 16.2 µM; in [12], 6.42 µM.

As to `Cc1cc(C)cc(OCC2CNC(=O)O2)c1` (configuration not stated) [METAXALONE], the half-maximal activity concentration (AC50) is above 30 µM in test [5]; 10.2 µM in test [6]; above 30 µM in test [7]; above 30 µM in test [8]; above 30 µM in [9]; above 30 µM in test [10]. Further, the concentration at half-maximal activity (AC50) in test [11] and in [12] was above 30 µM throughout.

Take `NC(=O)C1(N2CCCCC2)CCN(CCCC(=O)c2ccc(F)cc2)CC1` [PIPAMPERONE]: the concentration at half-maximal activity (AC50) in [5], in test [6], in [7], in test [8], in [9] and in [10] was above 30 µM in each case. Besides, the AC50 in test [11] and in [12] was above 30 µM throughout.

Turning to `CC(C)(Oc1ccc(Cl)cc1)C(=O)NC(=O)NCN1CCOCC1` [PLAFIBRIDE], the half-maximal activity concentration (AC50) in test [5], in test [6], in [7], in test [8], in [9] and in test [10] was above 30 µM throughout. Further, the half-maximal activity concentration (AC50) in test [11] and in test [12] was above 30 µM each time.

Regarding `CC(C)NC[C@H](O)COc1ccc(O)cc1` [PRENALTEROL], the half-maximal activity concentration (AC50) in test [5] is above 30 µM; in [6] it was 4.55 µM; in test [7], above 30 µM; in test [8] it was above 30 µM; in test [9], above 30 µM; in test [10], above 30 µM. Moreover, the AC50 in test [11] is above 30 µM; in [12] it was 5.86 µM.

On to `CN1CCC(N(Cc2cccs2)c2ccccc2)CC1` [THENALIDINE], for which the half-maximal activity concentration (AC50) was above 30 µM in test [5]; 0.399 µM in [6]; above 30 µM in test [7]; above 30 µM in test [8]; above 30 µM in [9]; above 30 µM in test [10]. The AC50 in [11] and in test [12] was above 30 µM in each case.

Turning to `Cc1ccc(C(C)C)c(O)c1` [THYMOL], the half-maximal activity concentration (AC50) in [5] is above 30 µM; in [6], 23.3 µM; in [7] it was above 30 µM; in test [8], above 30 µM; in test [9], above 30 µM; in test [10] it was above 30 µM. The AC50 in [11] was above 30 µM; in test [12], above 3 µM.

The AC50 is the midpoint of the concentration-response curve, whichever way the signal moves.

The record behind these values is ChEMBL document CHEMBL5291721, “A preclinical secondary pharmacology resource illuminates target-adverse drug reaction associations of marketed drugs” (Nat Commun, 2023).
